# Results from patent US12564595B2, “Prophylactic and therapeutic pharmaceutical agent for HIV infectious diseases characterized by comprising combination of integrase inhibitor and anti-HIV agent” (Shionogi & Co., Ltd., priority 2019, dated 2026).
# Experiments:
# [1] = Test Example 8: metabolic stability test; type: in vitro ADME, human; conditions: pooled human liver microsomes, 30 min at 37° C., NADPH, compound concentration 0.5 μmol/L
# Outline: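 Pooled human liver microsomes (0.5 mg protein/mL, Tris-HCl pH 7.4) incubated with compound and 1 mmol/L NADPH for 0 or 30 min at 37° C. After methanol/acetonitrile quench, remaining parent was quantified by LC/MS/MS or SPE/MS and expressed as % of the 0 min amount.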
# [2] = tested on: HIV mutant strain 2 (E92Q/E138T/G140S/Q148H); experiment: Test Example 2: resistance evaluation test (HeLa-CD4 reporter), mutant strain 2; type: cell-based; conditions: FC=EC50 of mutant strain/EC50 of wild strain; HeLa-CD4 cells
# Outline: (§1)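 HeLa-CD4 reporter cells were infected with wild-type or mutant HIV in the presence of serially diluted compound and cultured 3 days. Cell lysates were read by chemiluminescent reporter assay after about 1 h at room temperature. Fold change was calculated as mutant EC50 divided by wild-type EC50.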
# [3] = tested on: HIV; experiment: microbe, parasite or virus in culture; type: cell-based; conditions: Human immunodeficiency virus 1, MT4, 96 h, read-out: EC50 (50% HIV inhibition concentration), MT-4 cells, HIV, cultured four days, MTT; compounds of formula (I) of (A)
# Experimental: A serial dilution series of test samples was prepared in 96-well microplates (50 μL/well).
# 100 μL/well in each case were dispensed onto plates having test samples of 2.5×10^5/mL MT-4 cell suspension, and HIV virus solution was then dispensed thereto in the amount of 50 μL/well. Mixing was performed using a plate mixer and culturing was performed for four days in a CO2 incubator. MTT (3-(4,5-dimethylthiazol-2-yl)-2,5-diphenyltetrazolium bromide) liquid was dispensed into each well in the amount of 30 μL in each case. The reaction was conducted for 1 h in a CO2 incubator. 150 μL of supernatant were removed from each well, taking care not to aspirate any cells. 150 μL of cell solution were added, and thorough mixing was performed with a plate mixer until all the cells had been dissolved. The optical absorbance of the mixed plates was measured at two wavelengths: 560 nm/690 nm, with a microplate reader.
# [4] = tested on: HIV mutant strain 1 (E138K/G140S/Q148H/N155H); experiment: Test Example 2: resistance evaluation test (HeLa-CD4 reporter), mutant strain 1; type: cell-based; conditions: FC=EC50 of mutant strain/EC50 of wild strain; HeLa-CD4 cells
# Outline: as §1
# [5] = target: T1, voltage-gated sodium channel (Nav 1.5 channel) (Homo sapiens, UniProt Q14524); experiment: Test Example 14: Nav test (patch clamp, HEK cells); type: cell-based; conditions: HEK cells expressing Nav 1.5 channel, whole cell patch clamp
# T1 construct: expressed in transfected cells; host or cells: HEK cells
# T1 sequence (Q14524 whole entry): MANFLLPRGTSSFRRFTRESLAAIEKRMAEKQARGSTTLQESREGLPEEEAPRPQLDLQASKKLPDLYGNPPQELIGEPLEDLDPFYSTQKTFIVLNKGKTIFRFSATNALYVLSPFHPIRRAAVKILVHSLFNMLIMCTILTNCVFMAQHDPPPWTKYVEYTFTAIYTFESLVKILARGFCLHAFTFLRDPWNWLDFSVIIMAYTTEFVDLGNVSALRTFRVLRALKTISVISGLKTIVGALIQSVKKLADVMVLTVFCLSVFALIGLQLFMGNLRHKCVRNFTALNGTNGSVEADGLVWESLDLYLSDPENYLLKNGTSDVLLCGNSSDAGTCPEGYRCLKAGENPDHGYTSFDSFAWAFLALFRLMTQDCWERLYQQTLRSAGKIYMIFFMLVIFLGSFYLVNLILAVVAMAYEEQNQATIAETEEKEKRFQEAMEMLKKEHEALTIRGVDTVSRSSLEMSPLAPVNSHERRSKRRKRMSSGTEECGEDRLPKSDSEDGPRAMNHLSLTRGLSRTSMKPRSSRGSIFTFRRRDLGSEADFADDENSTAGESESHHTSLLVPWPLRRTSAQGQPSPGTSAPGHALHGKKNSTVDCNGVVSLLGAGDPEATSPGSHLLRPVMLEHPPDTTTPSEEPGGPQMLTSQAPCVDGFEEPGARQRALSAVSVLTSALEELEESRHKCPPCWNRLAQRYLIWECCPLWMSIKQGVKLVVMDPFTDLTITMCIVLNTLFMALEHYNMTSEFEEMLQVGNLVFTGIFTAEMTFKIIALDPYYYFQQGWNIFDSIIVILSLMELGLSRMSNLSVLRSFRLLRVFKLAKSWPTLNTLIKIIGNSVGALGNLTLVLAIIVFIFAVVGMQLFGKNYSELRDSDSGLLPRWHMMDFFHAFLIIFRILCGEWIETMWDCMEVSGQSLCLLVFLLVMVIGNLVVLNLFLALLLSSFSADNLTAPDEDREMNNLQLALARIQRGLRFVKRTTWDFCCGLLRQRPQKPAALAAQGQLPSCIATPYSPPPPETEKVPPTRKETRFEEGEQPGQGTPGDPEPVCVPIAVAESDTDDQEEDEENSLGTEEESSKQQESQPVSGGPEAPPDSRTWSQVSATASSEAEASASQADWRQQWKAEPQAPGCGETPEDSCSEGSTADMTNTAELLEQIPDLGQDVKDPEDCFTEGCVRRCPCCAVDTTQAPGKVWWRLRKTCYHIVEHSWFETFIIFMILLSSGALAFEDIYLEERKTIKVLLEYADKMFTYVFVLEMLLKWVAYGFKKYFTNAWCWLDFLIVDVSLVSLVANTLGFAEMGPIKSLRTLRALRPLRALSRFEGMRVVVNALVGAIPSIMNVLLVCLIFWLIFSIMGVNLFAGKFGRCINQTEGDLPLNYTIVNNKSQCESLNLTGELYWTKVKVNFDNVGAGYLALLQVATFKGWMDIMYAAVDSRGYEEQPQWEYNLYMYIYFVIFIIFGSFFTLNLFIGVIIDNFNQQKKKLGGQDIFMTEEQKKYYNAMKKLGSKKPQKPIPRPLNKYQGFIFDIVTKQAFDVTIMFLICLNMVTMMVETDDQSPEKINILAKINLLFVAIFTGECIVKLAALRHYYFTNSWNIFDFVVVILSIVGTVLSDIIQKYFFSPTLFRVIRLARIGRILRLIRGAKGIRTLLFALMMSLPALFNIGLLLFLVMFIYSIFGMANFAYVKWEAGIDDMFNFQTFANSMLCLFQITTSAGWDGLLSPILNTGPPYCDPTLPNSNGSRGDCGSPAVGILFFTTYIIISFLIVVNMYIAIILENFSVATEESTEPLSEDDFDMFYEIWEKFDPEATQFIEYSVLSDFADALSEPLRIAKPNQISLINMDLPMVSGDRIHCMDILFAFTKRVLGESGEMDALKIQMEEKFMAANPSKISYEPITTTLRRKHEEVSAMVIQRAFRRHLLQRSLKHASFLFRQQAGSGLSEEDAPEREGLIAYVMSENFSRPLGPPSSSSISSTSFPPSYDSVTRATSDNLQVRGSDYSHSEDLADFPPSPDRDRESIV
# Experimental: Using a fully automatic patch clamp system (QPatch: Sophion Bioscience A/S), by the whole cell patch clamp method, the cells were maintained at a membrane potential of −100 mV and the induced INa when a −10 mV depolarization stimulus was applied for 20 msec was recorded. […] From the INa obtained, using analysis software (QPatch: Sophion Bioscience A/S), the absolute value of the maximum peak current was measured, with reference to the current value at the maintained membrane potential.
smiles,measurement,setting,value
CN1C(=O)c2c(O)c(=O)c(-c3nnc(Cc4ccc(F)cc4F)s3)cn2N2C[C@@H]3CC[C@@H](C3)[C@@H]12 [II-138],Remaining percentage,[1],93.9%
same,FC in respect of mutant strain 2 (E92Q/E138T/G140S/Q148H),[2],11
same,EC50,[3],0.14 nM
same,FC in respect of mutant strain 1 (E138K/G140S/Q148H/N155H),[4],15
CCN1C(=O)c2c(O)c(=O)c(-c3nnc(Cc4ccc(F)cc4)s3)cn2N2C[C@@H]3CC[C@@H](O3)[C@@H]12 [II-128],Remaining percentage,[1],103%
same,FC in respect of mutant strain 2 (E92Q/E138T/G140S/Q148H),[2],29
same,EC50,[3],0.66 nM
same,FC in respect of mutant strain 1 (E138K/G140S/Q148H/N155H),[4],20
C[C@H]1CC[C@H]2N(C)C(=O)c3c(O)c(=O)c(-c4nnc(Cc5ccc(F)cc5F)s4)cn3N2C1 [II-120],Remaining percentage,[1],95.5%
same,FC in respect of mutant strain 2 (E92Q/E138T/G140S/Q148H),[2],8
same,EC50,[3],0.25 nM
same,FC in respect of mutant strain 1 (E138K/G140S/Q148H/N155H),[4],5.8
same,ratio of maximum peak current (INa) on application of compound to that on application of medium,[5],78.8%
COC[C@@H]1CC[C@H]2N(C)C(=O)c3c(O)c(=O)c(C(=O)NCc4c(F)cc(F)cc4F)cn3N12 [II-157],Remaining percentage,[1],90%
same,FC in respect of mutant strain 2 (E92Q/E138T/G140S/Q148H),[2],24
same,EC50,[3],0.7 nM
same,FC in respect of mutant strain 1 (E138K/G140S/Q148H/N155H),[4],53
CN1C(=O)c2c(O)c(=O)c(-c3nnc(Cc4c(F)cc(F)cc4F)s3)cn2N2C[C@@H]3CC[C@@H](C3)[C@@H]12 [II-149],Remaining percentage,[1],96.5%
same,FC in respect of mutant strain 2 (E92Q/E138T/G140S/Q148H),[2],12
same,EC50,[3],0.6 nM
same,FC in respect of mutant strain 1 (E138K/G140S/Q148H/N155H),[4],14
CCN1C(=O)c2c(O)c(=O)c(-c3nnc(Cc4c(F)cc(F)cc4F)s3)cn2N2[C@H](COC)CC[C@@H]12 [II-117],Remaining percentage,[1],93.4%
same,FC in respect of mutant strain 2 (E92Q/E138T/G140S/Q148H),[2],11
same,EC50,[3],0.62 nM
same,FC in respect of mutant strain 1 (E138K/G140S/Q148H/N155H),[4],10
same,ratio of maximum peak current (INa) on application of compound to that on application of medium,[5],88.8%
CCN1C(=O)c2c(O)c(=O)c(-c3nnc(Cc4ccc(F)cc4F)s3)cn2N2C[C@@H]3CC[C@@H](O3)[C@@H]12 [II-127],Remaining percentage,[1],100%
same,FC in respect of mutant strain 2 (E92Q/E138T/G140S/Q148H),[2],19
same,EC50,[3],0.74 nM
same,FC in respect of mutant strain 1 (E138K/G140S/Q148H/N155H),[4],7.9
